From patent US9034922B2, “Composition for maintaining function of platelets” (THE UNIVERSITY OF TOKYO, priority 2010, dated 2015)

What was measured:
ADAM17 = target: T1, ADAM17 (Homo sapiens, UniProt P78536); assay: ADAM17 inhibition experiment (fluorescent synthetic substrate); type: biochemical; details: from Table 3
T1 construct: made in house; host or cells: mammalian cells or insect cells
Description: The cDNA was incorporated into an expression vector. Then, this vector was transfected into mammalian cells or insect cells, and ADAM17 was expressed and obtained.
Next, the activity of ADAM17 was measured, as follows in the presence or absence of the test substances, in which obtained ADAM17 was used as an enzyme, and a fluorescent synthetic substrate Nma (N-methyl anthranilate)-[…]Dnp (dinitrophenyl)-D-Arg-NH2 containing an ADAM17-cleavage sequence of membrane-bound TNF was used as a substrate.
Specifically, 90 μL of 14 units of an enzyme solution (1 unit is defined as an amount of enzyme degrading […] of the substrate in 1 minute at 25° C.) prepared with Assay Buffer A (50 mmol/L Tris-HCl buffer (pH 7.5) containing 200 mmol/L sodium chloride, 5 mmol/L calcium chloride, 10 μmol/L zinc sulfate, and 2 mg/mL bovine serum albumin) was mixed with 90 μL of the fluorescent synthetic substrate adjusted to be 20 μmol/L with Assay Buffer B (50 mmol/L Tris-HCl buffer (pH 7.5) containing 200 mmol/L sodium chloride, 5 mmol/L calcium chloride, 10 μmol/L zinc sulfate, and 0.05% PLURONIC F-68), and allowed for reaction at 37° C. for 1.5 hours. Thereafter, the enzyme activity was determined by measurement using a fluorometer (Fluoroskan Ascent) under conditions of an excitation wavelength of 355 nm and a measurement wavelength of 460 nm. Then, an inhibition rate was obtained based on the enzyme activities in the presence and absence of the test compounds, and the 50% inhibitory concentration (IC50) was calculated.
A disintegrin and metalloproteinase 17 (ADAM17, TACE) (used was one prepared at Kaken Pharmaceutical Co., Ltd. by employing the genetic recombination in the same way as in Test Example 3. Note that, the same as in Test Example 3, 1 unit is defined as an amount of enzyme degrading 1 pmol of substrate in 1 minute at 25° C.)
TACE substrate (the same as one used in Test Example 3): excitation wavelength at 355 nm, emission wavelength at 460 nm
The enzyme reaction was carried out using the enzymes and substrates. Specifically, if necessary, the enzyme was activated in advance with APMA (final concentration 1 mmol/L, p-aminophenylmercuric acetate, manufactured by Sigma-Aldrich Co., A9563) according to information from the manufacturer. Then, in a 96-well plate for fluorescence measurement, 90 μL of an enzyme solution prepared with Assay Buffer A (50 mmol/L Tris-HCl buffer (pH 7.5) containing 200 mmol/L sodium chloride, 5 mmol/L calcium chloride, 10 μmol/L zinc sulfate, and 2 mg/mL bovine serum albumin) was mixed with 90 μL of the substrate adjusted to be 20 μmol/L with Assay Buffer B (50 mmol/L Tris-HCl buffer (pH 7.5) containing 200 mmol/L sodium chloride, 5 mmol/L calcium chloride, 10 μmol/L zinc sulfate, and 0.05% PLURONIC F-68), and incubated for reaction at 25° C. or 37° C. for several hours. Moreover, the fluorescence intensities before and after the reaction were measured using a fluorometer to determine the enzyme activity. An inhibition rate was obtained based on the enzyme activities in the presence and absence of the test substances, and the 50% inhibitory concentration (IC50) was calculated.

[1] = tested on: human platelets in laser/hematoporphyrin-induced thrombus formation; assay: Thrombus formation model in NOG mice with biomolecular imaging (injected human platelets); type: in vivo, mouse; details: Test Example 16; platelets prepared with 15 μM S-45457 and 100 μM CCCP, 37° C., 24 hours, injected into NOG mice
Description: The maintaining effect of the compound (such as S-45457) according to the present invention on the adhesion ability of platelets, particularly adhesion ability of platelets to a blood vessel in vivo, was evaluated using a biomolecular imaging technique and a thrombus formation model developed by the present inventors.
Note that the thrombus formation model used in this Test Example induces thrombus formation as follows. Specifically, reactive oxygen species (ROS) are generated locally in a blood vessel by using laser irradiation along with hematoporphyrin, and so forth. This gives damage to vascular endothelial cells, and thereby platelets adhere to the blood vessel, so that a thrombus is formed. […]
First, platelets were prepared for injection into mice used as a model of thrombus formation. […] After the incubation (in the case of the positive control, without incubation), the number of platelets in the precipitate was counted. […] The suspension was then incubated at room temperature for 15 minutes to label the platelets with fluorescence. […]
Next, the thrombus formation model mouse was prepared. […] Then, platelets labelled with fluorescence as described above were injected into the NOG mouse so that the number of the platelets was 15% of the number of circulating platelets. […]

T1 sequence (P78536 215-824): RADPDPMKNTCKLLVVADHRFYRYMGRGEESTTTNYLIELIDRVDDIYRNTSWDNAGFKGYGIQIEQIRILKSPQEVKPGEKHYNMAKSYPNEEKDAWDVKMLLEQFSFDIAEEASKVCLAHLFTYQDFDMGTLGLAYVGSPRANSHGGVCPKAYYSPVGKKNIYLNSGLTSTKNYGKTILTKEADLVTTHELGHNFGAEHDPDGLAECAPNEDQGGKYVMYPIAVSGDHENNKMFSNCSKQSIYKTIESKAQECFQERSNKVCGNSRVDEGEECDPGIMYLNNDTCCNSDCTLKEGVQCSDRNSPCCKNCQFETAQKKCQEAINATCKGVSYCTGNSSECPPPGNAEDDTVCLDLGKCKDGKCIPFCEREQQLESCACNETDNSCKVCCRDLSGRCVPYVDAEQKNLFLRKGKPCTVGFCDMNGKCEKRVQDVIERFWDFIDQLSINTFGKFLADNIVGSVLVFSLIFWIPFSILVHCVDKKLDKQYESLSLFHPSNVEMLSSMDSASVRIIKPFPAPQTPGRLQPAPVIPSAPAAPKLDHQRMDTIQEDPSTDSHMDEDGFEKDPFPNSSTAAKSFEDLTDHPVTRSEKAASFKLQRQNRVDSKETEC

Compound	specificity to ADAM17 in comparison with metalloproteinases other than ADAM17 (ADAM17)	percentage of the human-derived platelets contributing to the thrombus formation [1]
CC#CCOc1ccc(S(=O)(=O)CC(c2ccc(CN(CC)CC)cc2)N(O)C=O)cc1 (stereo not drawn) [Compound I-1, N-[2-(4-But-2-ynyloxybenzenesulfonyl)-1-(4-diethylaminomethylphenyl)ethyl]-N-hydroxyformamide]	high specificity to ADAM17	
CC#CCOc1ccc(S(=O)(=O)CC(c2ccc(CNS(C)(=O)=O)cc2)N(O)C=O)cc1 (stereo not drawn) [Compound I-4, N-{4-[2-(4-But-2-ynyloxybenzenesulfonyl)-1-(formylhydroxyamino)ethyl]benzyl}methanesulfonamide]	high specificity to ADAM17	higher than that of the negative control
